In patent EP4725957A1, “GROUP OF CYCLIC ALKALINE LIPOPEPTIDE COMPOUNDS, AND PREPARATION METHOD THEREFOR AND USE THEREOF” (Institute of Medicinal Biotechnology, Chinese Academy of …, priority 2023, dated 2024):
Converted amounts (≈) assume the structure as drawn. Like-named read-outs stand apart in the source and are kept apart here. Bridge positions count the residues as written; N and C are the ends. Square brackets hold non-standard residues; d marks the D form. Peptide text beside a SMILES is read from it. * marks the point of attachment. Heptanoyl(6-Me) = CC(C)CCCCC(=O)*; Sulfomethyl = O=S(=O)(O)C*; dOrn = NCCC[C@@H](N)C(=O)O; Heptanoyl = CCCCCCC(=O)*; Octanoyl = CCCCCCCC(=O)*; Orn = NCCC[C@H](N)C(=O)O; dDap = NC[C@@H](N)C(=O)O; Dab = NCC[C@H](N)C(=O)O; Dap = NC[C@H](N)C(=O)O

What was measured:
Format in all cases: cell-based
[1] = system: Escherichia coli ATCC BAA-2340 (KPC)
Method in brief: (§1)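 Broth microdilution MIC per CLSI in MH broth, compounds 2-fold diluted to final 64–0.03 mg/L. Inoculum (2-4) × 10^5 CFU/mL final, from 0.5 McFarland suspensions of 18-24 h colonies. Plates sealed and incubated 35-37°C for 16-20 h.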

[2] = system: Klebsiella pneumoniae ATCC BAA-1705 (KPC)
Method in brief: as §1

[3] = system: Acinetobacter baumannii ABA19-1
Method in brief: as §1

[4] = system: Pseudomonas aeruginosa ATCC 27853
Method in brief: as §1

[5] = system: Pseudomonas aeruginosa PAE19-3
Method in brief: as §1

[6] = system: Klebsiella pneumoniae KPN+19-15
Method in brief: as §1

[7] = system: Acinetobacter baumannii NCTC 13304 (OXA-27)
Method in brief: as §1

[8] = system: Escherichia coli ATCC BAA-2523
Method in brief: as §1

[9] = Nephrotoxicity assay: in vitro cytotoxicity of HK-2 cells by CCK-8 assay; conditions: human, HK-2 cells (human renal), 72 h incubation with drug-containing medium
Method in brief: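 HK-2 human renal cells in RPMI-1640 with 10% FBS were exposed to compounds at final 12.5–500 µg/mL for 72 h, then CCK-8 for 3 h and OD450 read. Viability was normalised to drug-free wells; IC50 came from logarithmic regression over three repeats, with polymyxin B as positive drug.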

| Compound | MIC ([1]; ATCC BAA-2340) [µg/mL] | MIC ([2]; ATCC BAA-1705) [µg/mL] | MIC ([3]; ABA19-1) [µg/mL] | MIC ([4]; ATCC 27853) [µg/mL] | MIC ([5]; PAE19-3) [µg/mL] | MIC ([6]; KPN+19-15) [µg/mL] | MIC ([7]; NCTC 13304) [µg/mL] | MIC ([8]; ATCC BAA-2523) [µg/mL] | IC50 at 72 h [9] [µg/mL] | MIC ([1]; Escherichia coli ATCC BAA-2340 (KPC)) [µg/mL] | MIC ([2]; Klebsiella pneumoniae ATCC BAA-1705 (KPC)) [µg/mL] | MIC ([3]; Acinetobacter baumannii ABA19-1) [µg/mL] | MIC ([4]; Pseudomonas aeruginosa ATCC27853) [µg/mL] | MIC ([5]; Pseudomonas aeruginosa PAE19-3) [µg/mL] | MIC ([6]; Klebsiella pneumoniae KPN 19-15) [µg/mL] | MIC ([7]; Acinetobacter baumannii NCTC 13304 (OXA-27)) [µg/mL] | MIC ([8]; Escherichia coli ATCC BAA-2523) [µg/mL] |
| --- | --- | --- | --- | --- | --- | --- | --- | --- | --- | --- | --- | --- | --- | --- | --- | --- | --- |
| CCCCCCC(=O)N[C@@H](CCCN)C(=O)N[C@H](C(=O)N[C@H](CO)C(=O)N[C@H]1CCNC(=O)[C@H]([C@@H](C)O)NC(=O)[C@H](CCN)NC(=O)[C@H](CCN)NC(=O)[C@H]([C@@H](C)O)NC(=O)[C@@H](Cc2ccccc2)NC(=O)[C@H](CCN)NC1=O)[C@@H](C)O [Compound 59, Heptanoyl-Orn-Thr-D-Ser-ring(4-10)[Dab-Dab-D-Phe-Thr-Dab-Dab-Thr]] (Heptanoyl-[Orn]T[dS][Dab][Dab][dF]T[Dab][Dab]T; lactam 4-C) | 0.25 (≈ 0.215 µM) | 0.25 (≈ 0.215 µM) | 0.25 (≈ 0.215 µM) | 64 (≈ 55 µM) | 8 (≈ 6.87 µM) | 0.5 (≈ 0.429 µM) | 0.25 (≈ 0.215 µM) | 0.25 (≈ 0.215 µM) | > 500 |  |  |  |  |  |  |  |  |
| CCCCCCCC(=O)N[C@@H](CCN)C(=O)N[C@H](C(=O)N[C@H](CN)C(=O)N[C@H]1CCNC(=O)[C@H]([C@@H](C)O)NC(=O)[C@H](CCN)NC(=O)[C@H](CCN)NC(=O)[C@H](CC(C)C)NC(=O)[C@@H](Cc2ccccc2)NC(=O)[C@H](CCN)NC1=O)[C@@H](C)O [Compound 33, Octanoyl-Dab-Thr-D-Dap-ring(4-10)[Dab-Dab-D-Phe-Leu-Dab-Dab-Thr]] (Octanoyl-[Dab]T[dDap][Dab][Dab][dF]L[Dab][Dab]T; lactam 4-C) |  |  |  |  |  |  |  |  | 339 ± 9.1 (≈ 289 µM) | 0.03 (≈ 0.0255 µM) | 0.03 (≈ 0.0255 µM) | 0.03 (≈ 0.0255 µM) | 0.03 (≈ 0.0255 µM) | 0.25 (≈ 0.213 µM) | 0.03 (≈ 0.0255 µM) | 0.03 (≈ 0.0255 µM) | 0.03 (≈ 0.0255 µM) |
| CCCCCCC(=O)N[C@@H](CCN)C(=O)N[C@H](C(=O)N[C@H](CCCN)C(=O)N[C@H]1CCNC(=O)[C@H]([C@@H](C)O)NC(=O)[C@H](CCN)NC(=O)[C@H](CCN)NC(=O)[C@H]([C@@H](C)O)NC(=O)[C@@H](Cc2ccccc2)NC(=O)[C@H](CCN)NC1=O)[C@@H](C)O [Compound 24, Heptanoyl-Dab-Thr-D-Orn-ring(4-10)[Dab-Dab-D-Phe-Thr-Dab-Dab-Thr]] (Heptanoyl-[Dab]T[dOrn][Dab][Dab][dF]T[Dab][Dab]T; lactam 4-C) | ≤0.03 | 0.06 (≈ 0.051 µM) | 0.125 (≈ 0.106 µM) | 0.5 (≈ 0.425 µM) | 2 (≈ 1.7 µM) | 0.125 (≈ 0.106 µM) | 0.06 (≈ 0.051 µM) | ≤0.03 | > 500 |  |  |  |  |  |  |  |  |
| CCCCCCC(=O)N[C@@H](CCN)C(=O)N[C@H](C(=O)N[C@H](CO)C(=O)N[C@H]1CCNC(=O)[C@H]([C@@H](C)O)NC(=O)[C@H](CCN)NC(=O)[C@H](CCN)NC(=O)[C@H]([C@@H](C)O)NC(=O)[C@@H](Cc2ccccc2)NC(=O)[C@H](CCCN)NC1=O)[C@@H](C)O [Compound 69, Heptanoyl-Dab-Thr-D-Ser-ring(4-10)[Dab-Orn-D-Phe-Thr-Dab-Dab-Thr]] (Heptanoyl-[Dab]T[dS][Dab][Orn][dF]T[Dab][Dab]T; lactam 4-C) | 0.5 (≈ 0.429 µM) | 0.25 (≈ 0.215 µM) | 0.25 (≈ 0.215 µM) | 64 (≈ 55 µM) | 8 (≈ 6.87 µM) | 0.5 (≈ 0.429 µM) | 0.25 (≈ 0.215 µM) | 0.5 (≈ 0.429 µM) | > 500 |  |  |  |  |  |  |  |  |
| CC(C)CCCCC(=O)N[C@@H](CCN)C(=O)N[C@H](C(=O)N[C@@H](CN)C(=O)N[C@H]1CCNC(=O)[C@H]([C@@H](C)OCS(=O)(=O)O)NC(=O)[C@H](CCN)NC(=O)[C@H](CCN)NC(=O)[C@H]([C@@H](C)O)NC(=O)[C@@H](Cc2ccccc2)NC(=O)[C@H](CCN)NC1=O)[C@@H](C)O [Compound 115, 6-methylheptanoyl-Dab-Thr-Dap-ring(4-10)[Dab-Dab-D-Phe-Thr-Dab-Dab-Thr(CH2SO3H)]] ({Heptanoyl(6-Me)}-[Dab]T[Dap][Dab][Dab][dF]T[Dab][Dab]T(Sulfomethyl); lactam 4-C) | 0.03 (≈ 0.0239 µM) | 0.125 (≈ 0.0994 µM) | 0.06 (≈ 0.0477 µM) | 0.25 (≈ 0.199 µM) | 0.25 (≈ 0.199 µM) | 0.125 (≈ 0.0994 µM) | 0.06 (≈ 0.0477 µM) | 0.03 (≈ 0.0239 µM) | > 500 |  |  |  |  |  |  |  |  |
